± gives the expanded uncertainty stated by the source.
Details: Liquid; for mass density: 303.15 K, 101.33 kPa, Pycnometric method; for vapor or sublimation pressure / Normal boiling temperature: Ebulliometric method (Recirculating still)

| Structure (SMILES) | mass density | vapor or sublimation pressure (355.05 K) | Normal boiling temperature | vapor or sublimation pressure (345.45 K) | vapor or sublimation pressure (391.95 K) | vapor or sublimation pressure (417.05 K) | vapor or sublimation pressure (460.95 K) | vapor or sublimation pressure (357.75 K) |
| --- | --- | --- | --- | --- | --- | --- | --- | --- |
| ClCCCl [1,2-dichloroethane] | 1238.41 ± 8.6 kg/m3 | 95.3 ± 2 kPa | 83.80 ± 0.41 °C | – | – | – | – | – |
| CC(Cl)(Cl)Cl [1,1,1-trichloroethane] | 1320.97 ± 9.8 kg/m3 | – | 74.20 ± 0.41 °C | 95.3 ± 2 kPa | – | – | – | – |
| ClC(Cl)=C(Cl)Cl [tetrachloroethene] | 1606.39 ± 14 kg/m3 | – | 121.00 ± 0.41 °C | – | 95.3 ± 2 kPa | – | – | – |
| ClC(Cl)C(Cl)Cl [1,1,2,2-tetrachloroethane] | 1578.59 ± 14 kg/m3 | – | 145.20 ± 0.41 °C | – | – | 95.3 ± 2 kPa | – | – |
| C[S+](C)[O-] [dimethyl sulfoxide] | 1090.4 ± 6.7 kg/m3 | – | 189.04 ± 0.41 °C | – | – | – | 95.3 ± 2 kPa | – |
| ClC=C(Cl)Cl [trichloroethene] | 1451.42 ± 12 kg/m3 | – | 87.10 ± 0.41 °C | – | – | – | – | 95.3 ± 2 kPa |

Reference: the NIST ThermoML archive (doi:10.1021/je700408x)
